Patent publication US20240197890A1, “FLAVONE DERIVATIVES AND USES IN TARGETING CK2-MEDIATED DISEASES AND CONDITIONS” (Salk Institute for Biological Studies, priority 2020, published 2024)

Columns and labels:
CK2 [1] = experiment: Target engagement in mouse brain homogenates (Cyclex CK2 ELISA kit); format: in vivo; conditions: single dose 25.6 mg/kg i.p., in comparison to FNH79
Experimental: Animals. All animal procedures were approved by the Institutional Animal Care and Use Committee of The Salk Institute for Biological Studies. Wildtype male C57BL/6 mice (2-3 months old) were housed under standard 12-h light/dark cycles with free access to food and water. IN2.2 or vehicle (3% hydroxypropylmethylcellulose, HPMC) was injected as a single dose (25.6 mg/kg) i.p. mice (n=6 and n=3 controls). Blood was collected at t=0, 0.5, 1, 2, 4, 8, 24 via retro-orbital bleeding and allowed to clot at room temperature to separate serum and clarified. At the final timepoint, mice were anesthetized with ketamine and tissues were harvested. Drug concentrations in serum and tissues were determined by LC/MS-MS. Target engagement in the brain was determined in brain homogenates from treated animals using the Cyclex CK2 ELISA kit. […] Tolerability was assessed mice (mean±s.d., n=5) by injecting with JKT56/IN3.2 daily at 20 mg/kg and monitoring closely for any signs of toxicity based on body weight changes and behavior/appearance (e.g. signs of distress, rough coat, squinty eyes, hunched posture).
IN2.2 or vehicle (3% wt/wt hydroxpropymethylcellulose aqueous solution) was injected as a single dose (25.6 mg/kg) i.p. in 2-3 month old C57Bl/6Nhsd mice (n=6 and n=3 controls). […] Drug concentrations in serum and tissues were determined by LC/MS-MS. […]

BBB organoids = experiment: BBB permeability and anti-inflammatory activity in BBB organoids; format: cell-based; conditions: 6.7 μM, 3 days, compared to FNH79 at 20 μM
Experimental: BBB permeability of IN2.2 was also determined in BBB organoids (Cho et al., Nat Commun 2017, 8:15623). Pools of -50 organoids were treated for 3 days with IL1-β and DMSO or compounds (FNH79 at 20 μM, IN2.2 at 6.7 μM) and collected in RNA-Bee reagent (Amsbio). qPCR for IL6 and IL8 expression was performed (mean±s.d., n=3).

NF-κB pS529 = experiment: Immunofluorescence of NF-κB and NF-κB pS529 in activated astrocytes; format: cell-based, human
Experimental: Immunotluorescence. […] After treatment, cells were fixed with 4% paraformaldehyde solution for 20 min at room temperature and washed 3× with DPBS for 10 min each. The cells were permeabilized using 5% horse serum and 10% Triton X in DPBS for 15 min at room temperature and blocked with 5% horse serum in PBS for 30 min at room temperature. Cells were incubated with primary antibodies in blocking buffer either overnight at 4° C. or for 2 hours at room temperature. After incubation, cells were washed 3× with PBS, blocked using 5% horse serum in PBS for 30 min at room temperature, and incubated with Cy3 red-labeled or AF488 green-labeled secondary antibodies diluted in blocking buffer for 1 hour at room temperature. The cells were washed once with PBS for 10 min, then counter-stained with DAPI. The cells were washed 3× with PBS and mounted with glass coverslips and Immu-Mount solution. Images were obtained with the Zeiss fluorescent microscope. The following primary antibodies were used: rabbit anti-NF-κB (1:400; CST), mouse anti-phospho NF-κB S529 (20 ug/ml; Thermo Fisher), rabbit anti-CK2A1 (1:500; Bethyl), mouse anti-IKb alpha (1:400; CST), mouse anti-phospho IKb alpha (1:50; Santa Cruz), rabbit anti-phospho CK2A1 (1:25; Thermo Fisher), rabbit anti-phospho Cdc37 (1:50; Novus), mouse anti-phospho NF-κB S529 (1:25; R&D), rabbit anti-Cdc37 (1:100; CST), mouse anti-SQSTM1 (1:50; Santa Cruz), anti rabbit-phospho NF-κB S536 (1:1600; CST), anti rabbit-Akt (pan) (1:400; CST), anti mouse-phospho Akt S473 (1:500; Sigma).
To investigate the potential effects of CK2 activity on NF-κB, NF-κB and NF-κB pS529 were measured by immunofluorescence in activated astrocytes. […] At this timepoint, NF-κB pS529 levels were similar across all treatments, possibly as a result of slower turnover by pNF-κB species.

CK2 [2] = experiment: CK2 kinase assay in postmortem brain lysates (Csox peptide); format: biochemical, human; conditions: pretreatment with 20 μM for 30 min
Experimental: Kinase assays. In vitro kinase assays were run using the Cysteine-Sox-Kinase Sensor AQT0696, 96 assay Kit (AssayQuant Tech, CSKS-AQT0696). Compound stocks (1.25×) at concentrations in a 2-fold dilution series were prepared in kinase reaction mixes and added in duplicate to a 384-well white-bottom NBS plates (Corning X) at 20 μL/well. Then, 5 μL active recombinant human CK2a1 kinase (Thermo Fisher PV3248, 5× in Kinase Dilution Buffer) was added to each well, quickly mixed by rotation, and incubated for 5 h at 30° C., with fluorescence readings taken every 3 min (excitation λ=365 nm, emission λ=495-505 nm) on a Promega GloMax Discover Microplate Reader. The final reaction conditions contained 10 μM AQT0696 Csox peptide, 1 mM ATP, 54 mM HEPES pH 7.5, 1.2 mM DTT, 0.012% Brij-35, 0.52 mM EGTA, 1% glycerol, 0.2 mg/mL BSA, 10 mM MgCl2, and 20 nM CK2a1. Slopes corresponding to linear reaction rates were obtained for each compound concentration (RFU/sec), normalized to DMSO controls, and IC50 values were determined by applying the dose response non-linear regression model in GraphPad Prism. […] After sonication and clarification, protein concentration was measured by BCA Assay. CK2 activity was measured as described above, except lysates were used instead of purified kinase at 2 μL/well (˜0.3-0.4 ug protein per reaction). […]

468 human kinases = conditions: testing concentration of 1 μM; cited from earlier work
IκB S32 = experiment: Immunoblot of IκB S32 in IL1-β-stimulated astrocytes; format: cell-based, human; conditions: after 5 hours
Experimental: Western blotting. […] Cells were dissociated with 1:1 Accutase:papain for 3 min at rt, pelleted for 5 min at 800 g, and washed twice with cold DPBS. Pellets were lysed with RIPA buffer (Sigma R0278) supplemented with Halt protease inhibitor cocktail (Thermo Fisher 78445) and clarified by centrifugation (16,000 g, 10 min, 4° C.). Protein concentration was determined by BCA assay (Thermo Fisher). Proteins were denatured in 1×LDS Buffer and 2.5% beta-mercaptoethanol (X) for 10 min at 70° C., separated on Bolt 4-12% Bis-Tris Plus polyacrylamide gels (Thermo Fisher), transferred to PVDF membranes using the iBlot 2 Dry Blotting System, and blocked with 0.1% casein-PBS (Bio-Rad) for 1 h at room temperature. The blots were incubated with primary antibodies overnight at 4° C. in PBS containing 0.1% casein and 0.2% Tween-20. Antibodies used: rabbit anti-CK2a1 (Bethyl #, 1:5000), rabbit anti-CK2a2 (Bethyl #, 1:5000), mouse anti-GAPDH (Fitzgerald #10-1501, 1:20,000), mouse anti-NF-KB (CST #6956S, 1:1000), pNF-KB S529 (TFS #14-9864-82, 1:100), LC3B (CST 2775, 1:1000), ACO2 (CST 6922, 1:1000), rabbit HMGB1 (Novus #NB1002322, 1:1000), mouse anti-IκBα (CST #4814S, 1:1000), mouse anti-IκBa pS32 (SC #8404, 1:500), HA-tag (Bethyl #A190-108A, 1:20000). […] The blots were imaged using the Odyssey CLx imaging system and blots were analyzed on the ImageStudio software (LI-COR). […]

AKT pS473 = experiment: Immunofluorescence of AKT pS473 in IL1β-stimulated primary astrocytes; format: cell-based; conditions: IL1-β for 5 h
Experimental: (§1) Immunotluorescence. […] After treatment, cells were fixed with 4% paraformaldehyde solution for 20 min at room temperature and washed 3× with DPBS for 10 min each. The cells were permeabilized using 5% horse serum and 10% Triton X in DPBS for 15 min at room temperature and blocked with 5% horse serum in PBS for 30 min at room temperature. Cells were incubated with primary antibodies in blocking buffer either overnight at 4° C. or for 2 hours at room temperature. After incubation, cells were washed 3× with PBS, blocked using 5% horse serum in PBS for 30 min at room temperature, and incubated with Cy3 red-labeled or AF488 green-labeled secondary antibodies diluted in blocking buffer for 1 hour at room temperature. The cells were washed once with PBS for 10 min, then counter-stained with DAPI. The cells were washed 3× with PBS and mounted with glass coverslips and Immu-Mount solution. Images were obtained with the Zeiss fluorescent microscope. […]

CK2 Y255 = experiment: Immunofluorescence of CK2 Y255 phosphorylation in nuclei of primary human astrocytes; format: cell-based; conditions: 20 μM, 5 h
Experimental: as §1

[3] = test system: IL6 and IL8 expression in astrocytes; experiment: Activation assay, ddPCR of cytokine expression in IL1-β-activated astrocytes; format: cell-based, human; conditions: 5 h treatment
Experimental: Activation assays and ddPCR. HCA or H1-derived astrocytes were treated with vehicle (DMSO) or 20 μM compound and stimulated with IL1-B 10 ng/mL for 5 h. Cells were scraped into RNA-Bee and total RNA was purified using the Direct-zol RNA kit (Zymo Research). RNA concentration was measured using Nanodrop and RNA was reverse transcribed into cDNA using the High Capacity cDNA Reverse Transcriptase Kit (Applied Biosystems). Reaction mixes consisting of TaqMan FAM probe (IL6, IL8, CSNK2A1, CSNK2A2), control TaqMan ACTB-VIC probe (TFS 4326315E), ddPCR Supermix for Probes (Bio-Rad 186-3024), and cDNA were formed into oil droplets using the QX200 Droplet Generator. After amplification (Bio-Rad C1000 Touch Thermal Cycler) according to manufacturer's instructions, the plate was read in the QX200 Droplet Reader.

Row | Structure (SMILES) | target engagement in brain (CK2 [1]) | IL6 and IL8 expression (BBB organoids; IL1-β) | BBB permeability (BBB organoids) | IL1-β-induced increase of NF-κB nuclear intensity (NF-κB pS529; after 1 h) | pNF-κB nuclear intensity relative to total NF-κB (NF-κB pS529; after 5 hours) | CK2-specific fluorescence of phosphorylated Csox peptide in brain lysates (CK2 [2]) | number of other kinases inhibited >90% (468 human kinases) | IκB S32 levels (IκB S32) | AKT pS473 levels (AKT pS473) | pCK2/CK2 in nuclei (CK2 Y255) | expression of IL6 and IL8 in IL1-β-activated astrocytes [3]
1 | COc1cc(-c2cc(=O)c3cc(Br)cc(Br)c3o2)ncc1O [IN2.2] | superior target engagement | reduction | superior permeability | – | – | – | – | – | – | – | –
2 | O=C(O)c1ccc2c(c1)nc(Nc1cccc(Cl)c1)c1ccncc12 [CX4945] | – | – | – | blocked | reduced | blocked | 28 | decreased | reduced | reduced | successfully blocked
